In patent US20220162240A1, “MITOCHONDRIA-TARGETED ISOKETAL/ISOLEVUGLANDIN SCAVENGERS” (Vanderbilt University, priority 2019, published 2022):
“Also recorded” adds a separate entry of the source.

Experiments:
[1] = tested on: human aortic endothelial cells (HAEC); assay: Mitochondrial superoxide in HAEC incubated with Ang II plus TNFα (MitoSOX/HPLC); assay type: cell-based; settings: 50 nM, Ang II + TNFα 24 hours, MitoSOX/HPLC
Experimental: (§1) Free radical oxidation of arachidonic acid produces highly reactive isolevuglandins (isoLG) which causes mitochondrial dysfunction by opening of the mitochondrial permeability transition pore (mPTP). […] The functional role of mitochondrial isoLG was tested in vivo using angiotensin II model of hypertension. C57Bl/6J mice were infused with angiotensin II (0.7 mg/kg/day) or saline (Sham) and received mito2HOBA in the drinking water (0.1 g/L). […] Decrease of NO is a hallmark of endothelial dysfunction in hypertension due to vascular oxidative stress.
(§2) Mitochondrial O2^• and cardiolipin oxidation (specific marker of mitochondrial dysfunction and oxidative stress) in cultured human aortic endothelial cells (HAEC) were incubated with Ang II and TNFα.

[2] = tested on: human aortic endothelial cells (HAEC); assay: Cardiolipin oxidation in HAEC incubated with Ang II plus TNFα (LC/MS); assay type: cell-based; settings: 50 nM, Ang II + TNFα 24 hours
Experimental: as §1, §2

[3] = tested on: Ang II-infused C57Bl/6J mice; assay: Blood pressure in angiotensin II-induced hypertension, mito2HOBA in drinking water; assay type: in vivo; settings: Ang II 0.7 mg/kg/day, compound 0.1 g/L in drinking water
Experimental: (§3) (A) Blood pressure in C57Bl/6J mice infused with saline (Sham) or Ang II ([…]). Mito2HOBA was supplemented in drinking water (0.1 g/L). (B) Western blot of aorta mitochondria for isoLG adducts (D11 antibody), CypD, GCN5L1, Sirt3 and CypD acetylation (CypD i.p. and anti-Acetyl-K WB). Results are mean±SEM. *P<0.01 vs Sham, **P<0.01 vs Ang II (n=8).
(A) Blood pressure in C57Bl/6J wild type mice infused with either saline (Sham) or Ang II ([…]). Mito2HOBA was supplemented in drinking water (0.1 g/L). (B) Mitochondrial isoLG were measured by Western blot in the heart mitochondria using D11 antibody as we have previously described. Results are mean±SEM. *P<0.01 vs Sham, **P<0.01 vs Ang II (n=8).
(§4) Sham or Ang II-infused mice were supplemented with mito2HOBA in the drinking water (0.1 g/L) or plain water. […] Following 14 days of Ang II infusion, mice were sacrificed, aortas were isolated for Western blot studies. […] This causes an imbalance between mitochondrial acetylation and deacetylation pathways leading to hyperacetylation of mitochondrial proteins measured by Ac-K and CypD hyperacetylation.
The present inventors implanted an osmotic minipump with Ang II (0.7 mg/kg/day) or saline (Sham) in C57Bl/6J mice receiving mito2HOBA in the drinking water (0.1 g/L) or plain water. […]

[4] = tested on: mitochondrial isoLG protein adducts; assay: Western blot of isoLG adducts (D11 antibody) in heart mitochondria of Ang II-infused mice; assay type: in vivo; settings: 0.1 g/L in drinking water, 14 days
Experimental: Mito2HOBA was supplemented in drinking water (0.1 g/L). […] Results are mean±SEM. *P<0.01 vs Sham, **P<0.01 vs Ang II (n=8).
as §1

[5] = tested on: mitochondrial isoLG protein adducts; assay: Western blot of isoLG adducts and CypD-isoLG (D11 antibody) in aorta mitochondria of Ang II-infused mice; assay type: in vivo
Experimental: as §3
FIG. 18 is a western blot analysis of isoLG protein adducts in mitochondria isolated from aorta dissected from C57Bl/6J mice infused with Ang II and treated with mito2HOBA (A). CypD-isoLG modification was determined by CypD immunoprecipitation and Western blot with anti-isoLG D11 antibody (B).
as §4
The potential CypD-isoLG adduct formation was determined by CypD immunoprecipitation and Western blot with anti-isoLG D11 antibody.

CypD acetylation = assay: Western blot of aorta mitochondria for GCN5L1, Sirt3, Ac-K and CypD acetylation in Ang II-infused mice; assay type: in vivo; settings: 0.1 g/L in drinking water; for CypD acetylation: CypD i.p. and anti-Acetyl-K WB
Experimental: as §3, §4
Hypertension impairs mitochondrial function and mito2HOBA attenuates mitochondrial dysfunction, and accumulation of mitochondrial isoLG in hypertension promotes CypD acetylation and mPTP opening, impairs mitochondrial respiration and reduces ATP. Scavenging of mitochondrial isoLG with mito2HOBA prevents these deleterious effects. The inventors analyzed kidney tissue isolated from control mice (Sham), mice drinking mito2HOBA, mice infused with Ang II and Ang II-infused mice supplemented with mito2HOBA (mito2HOBA+Ang II).

[6] = tested on: isoLG-Lysyl-Lactam protein adducts; assay: LC/MS/MS of isoLG-Lys-Lactam protein adducts in kidney mitochondria of Ang II-infused mice; assay type: in vivo; settings: 0.1 g/L in drinking water
Experimental: (A) Representative LC/MS/MS chromatograms; (B) isoLG-Lys-Lactam levels in mitochondria isolated from kidneys of mice drinking water (Sham), mito2HOBA (0.1 g/L), and infused with Ang II (0.7 mg/kg/day). Results are mean±SEM (n=3). *P<0.05 vs Ang II.

kidney mitochondria = settings: Ang II-infused mice, 0.1 g/L in drinking water
Experimental: C57Bl/6J mice were infused with Ang II ([…]) and mito2HOBA in the drinking water (0.1 g/L). Following 14 days of Ang II infusion the animals were sacrificed and kidneys were isolated for mitochondrial studies. […] Respiratory control ratio (State 3/State 4) was measured in isolated kidney mitochondria with glutamate and malate […]. Control level is 100%. (B) Kidney ATP was measured in freshly isolated tissue by luciferase-based luminescent assay. Results are mean±SEM. *P<0.01 vs Sham, **P<0.01 vs Ang II (n=3-8).
(A) Respiratory control ratio (State 3/State 4) was measured in isolated kidney mitochondria with glutamate and malate. Control level is 100%. (B) Kidney ATP level was measured in freshly isolated tissue by luciferase-based luminescent assay. C57Bl/6J mice were infused with Ang II ([…]) and mito2HOBA was provided in the drinking water (0.1 g/L). Following 14 days of Ang II infusion the animals were sacrificed and kidneys were isolated for mitochondrial and ATP studies. Results are mean±SEM. *P<0.01 vs Sham, **P<0.01 vs Ang II (n=3-8).
The inventors analyzed kidney tissue isolated from control mice (Sham), mice drinking mito2HOBA, mice infused with Ang II and Ang II-infused mice supplemented with mito2HOBA (mito2HOBA+Ang II).
To show this, the present inventors analyzed kidney tissue isolated from control mice (Sham), mice drinking mito2HOBA (mito2HOBA), mice infused with Ang II (Ang II) and Ang II-infused mice supplemented with mito2HOBA (mito2HOBA+Ang II).

aortic superoxide = assay: Aortic superoxide by DHE probe and HPLC in Ang II-infused mice; assay type: in vivo; settings: 0.1 g/L in drinking water
Experimental: (§5) (A) Aortic […] was measured by DHE probe and HPLC. (B) Endothelial NO was analyzed by ESR and Fe(DETC)2. C57Bl/6J mice were infused with Ang II ([…]) and mito2HOBA was provided in the drinking water (0.1 g/L).
(§6) The present inventors examined vascular oxidative stress by measurements of aortic ? using fluorescent ? probe DHE and HPLC, and analysis of endothelial NO using Electron Spin Resonance and specific NO spin trap Fe(DETC)2.
(§7) Among the other actions O2^• inactivates endothelial nitric oxide (NO), promotes vasoconstriction and vascular remodeling and ultimately increases systemic vascular resistance. Decreased NO bioavailability is therefore a hallmark of endothelial oxidative stress in hypertension due to NO oxidation, reduced NO production and eNOS uncoupling. We measured aortic O2^• using the fluorescent O2^• probe DHE and HPLC as we described previously. Endothelial NO was quantified by Electron Spin Resonance (ESR) and specific NO spin trap Fe(DETC)2.

endothelial NO = assay: Endothelial NO by ESR and Fe(DETC)2 in Ang II-infused mice; assay type: in vivo; settings: 0.1 g/L in drinking water, ESR
Experimental: as §5, §6, §7

[7] = tested on: human aortic endothelial cells (HAECs); assay: Tolerability in cultured HAEC; assay type: cell-based
mice = assay: Tolerability in mice receiving compound in drinking water; assay type: in vivo
[8] = Experimental: as §1
The above example is a water soluble compound which can be supplied to cells in the media and provided to animals in the drinking water.

mitochondrial matrix = settings: TPP conjugate, given as example; cited from earlier work

With “4-(aminomethyl)-3-hydroxyphenoxy) butyl)triphenylphosphonium [mito2HOBA]” the “mitochondrial superoxide production / mitochondrial oxidative stress” value [1] was “inhibited; also recorded: diminished mitochondrial oxidative stress; also recorded: inhibition of mitochondrial oxidative stress”, the cardiolipin oxidation [2] was “prevented cardiolipin oxidation” and the cardiolipin oxidation ([2]; listed as Mito2HOBA) was “more effective in prevention of cardiolipin oxidation than 2HOBA”. For the same molecule, the “Ang II-induced hypertension (blood pressure)” value [3] was “significantly attenuates”, the “Ang II-induced hypertension (blood pressure)” value ([3]; listed as Mito2HOBA) was “significantly attenuated” and the “isoLG adducts in heart mitochondria” value [4] was “reduced accumulation of isoLG adducts”. For the same molecule, the “isoLG adducts in aorta mitochondria” value ([5]; Ang II-infused mice, 0.1 g/L in drinking water, 14 days, D11 antibody) was “prevents accumulation of isoLG adducts; also recorded: attenuated accumulation of mitochondrial isoLG”, the “protein isoLG adducts and CypD-isoLG in aortic mitochondria” value ([5]; CypD immunoprecipitation and Western blot with D11 antibody) was “diminished” and the “balance between GCN5L1 and Sirt3 in aorta mitochondria” value (CypD acetylation) was “corrects the imbalance between GCN5L1 and Sirt3”. For the same molecule, the “mitochondrial Ac-K (acetylation of mitochondrial proteins)” value (CypD acetylation) was “reduces mitochondrial Ac-K”, the CypD acetylation (CypD acetylation) was “reduced CypD acetylation” and the CypD acetylation (CypD acetylation; listed as Mito2HOBA) was “prevents CypD hyperacetylation”. The “isoLG-Lysyl-Lactam protein adducts in kidney mitochondria” value [6] was “abolished isoLG-Lysyl-Lactam adducts formation”, the “mPTP opening (Ca2+ retention capacity) in kidney mitochondria” value (kidney mitochondria; 14 days) was “attenuates mPTP opening; also recorded: reduces mPTP opening” and the “mitochondrial respiration (respiratory control ratio State 3/State 4)” value (kidney mitochondria; kidney mitochondria with glutamate and malate) was “protects mitochondrial respiration”. For the same molecule, the “kidney ATP” value (kidney mitochondria; luciferase-based luminescent assay) was “preserves normal ATP production”, the “vascular (aortic) superoxide” value (aortic superoxide) was “reduced; also recorded: reduces vascular O2^•” and the “endothelial NO” value (endothelial NO) was “preserved endothelial NO; also recorded: preserves NO bioavailability”. The “tolerability by cultured HAECs” value [7] was “well tolerated”, the “concentration well tolerated by cultured HAECs” value ([7]; preliminary in vitro experiments) was “up to 200 nM” and the “tolerability by mice receiving it in drinking water” value (mice) was “well tolerated”. For the same molecule, the “dose in drinking water well tolerated” value (mice; preliminary in vivo experiments) was 0.1 to 0.3 g/L and the water solubility [8] was “water soluble”.
For `CC1(C)CC(NC(=O)C[P+](c2ccccc2)(c2ccccc2)c2ccccc2)CC(C)(C)N1[O]` [mitoTEMPO], the “concentration within the mitochondrial matrix” value (mitochondrial matrix) is given as “more than a five hundred-fold”.
